Measurements from US8518952B2, “6 substituted 2-heterocyclylamino pyrazine compounds as CHK-1 inhibitors” (Pfizer Inc., priority 2008, dated 2013).
Where two headings read alike, the source gives them in different places.

Columns and labels:
CHK1 (kinase domain) = molecular target: T1, CHK1 (kinase domain) (Homo sapiens, UniProt O14757); assay: CHK1 Ki determination, spectrophotometric coupled (pyruvate kinase/lactate dehydrogenase) assay; type: biochemical; settings: CHK-1 kinase domain; for Ki: 150 uM ATP, 125 uM Syntide 2; for percent inhibition (where no Ki data is available): inhibitor concentration not given
T1 construct: a solution containing 1 nM of CHK1 (kinase domain)
T1 sequence (O14757 9-265 limits assumed): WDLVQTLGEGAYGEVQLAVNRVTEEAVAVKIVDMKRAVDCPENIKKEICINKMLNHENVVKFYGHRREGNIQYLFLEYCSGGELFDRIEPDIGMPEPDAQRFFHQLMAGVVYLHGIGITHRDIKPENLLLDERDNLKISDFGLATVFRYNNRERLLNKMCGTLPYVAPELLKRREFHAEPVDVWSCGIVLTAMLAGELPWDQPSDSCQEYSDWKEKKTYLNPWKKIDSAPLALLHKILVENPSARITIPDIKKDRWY
How it was run: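 The CHK1 kinase domain was pre-incubated with compound for 15 min, and the reaction was started with 125 uM Syntide 2 and 150 uM ATP. ADP formation was coupled through pyruvate kinase/lactate dehydrogenase to NADH oxidation, read as the A340 decrease. Kiapp was fitted with a tight-binding equation that accounts for enzyme concentration and ATP Km; some entries are % inhibition.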

HeLa cells = assay: Histone H3 (Ser10) phosphorylation ELISA, abrogation of camptothecin-induced G2 arrest (CHK-1 cellular assay); type: cell-based; settings: HeLa cells, camptothecin 8 hrs, then compound with nocodozole 16 hours, read-out: EC50
How it was run: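 HeLa cells, or MiaPaCa-2 where marked, received camptothecin for 8 h, then compound with nocodazole for 16 h. Ser10-phosphorylated histone H3 in lysates was measured by ELISA with a biotinylated antibody, streptavidin-HRP and TMB. EC50 came from four-parameter sigmoid fits.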

Row | Compound | Ki (CHK1 (kinase domain)) | EC50 (HeLa cells; Homo sapiens, HeLa) | percent inhibition (where no Ki data is available) (CHK1 (kinase domain)) | EC50 (HeLa cells)
1 | FC[C@@H]1C[C@@H](Nc2cncc(-c3cnn4cc(Cl)ccc34)n2)CN1 [Example 79, 6-(6-chloropyrazolo[1,5-a]pyridin-3-yl)-N-[(3R,5S)-5-(fluoromethyl)pyrrolidin-3-yl]pyrazin-2-amine] | 5.68 nM | 184 nM |  | 
2 | Fc1ccc2ncc(-c3cncc(N[C@@H]4CCNC4)n3)n2c1 [Example 91, 6-(6-fluoroimidazo[1,2-a]pyridin-3-yl)-N-[(3R)-pyrrolidin-3-yl]pyrazin-2-amine] | 18.7 nM | 497 nM |  | 
3 | CC(C)Oc1ccc2ncn(-c3cncc(N[C@@H]4CCNC4)n3)c2c1 [Example 15, 6-[6-(propan-2-yloxy)-1H-benzimidazol-1-yl]-N-[(3R)-pyrrolidin-3-yl]pyrazin-2-amine] |  | ≥ 10000 nM | 43.5%^ | 
4 | CC(C)OCCOc1ccn2c(-c3cncc(N[C@@H]4CCNC4)n3)cnc2c1 [Example 213, 6-{7-[2-(propan-2-yloxy)ethoxy]imidazo[1,2-a]pyridin-3-yl}-N-[(3R)-pyrrolidin-3-yl]pyrazin-2-amine] | 3.58 nM | ≥ 10000 nM |  | 
5 | CCc1cn2c(-c3cncc(N[C@@H]4CCCN[C@H]4C)n3)cnc2s1 [Example 170, 6-(2-ethylimidazo[2,1-b][1,3]thiazol-5-yl)-N-[(2S,3R)-2-methylpiperidin-3-yl]pyrazin-2-amine] | 11.1 nM |  |  | 414 nM
6 | COc1ccc2c(c1)ncn2-c1cncc(N[C@@H]2CCCNC2)n1 [Example 224, 6-(5-methoxy-1H-benzimidazol-1-yl)-N-[(3R)-piperidin-3-yl]pyrazin-2-amine] | 2.39 nM | 30.3 nM |  | 
7 | CC(Oc1ccn2c(-c3cncc(N[C@@H]4CCNC4)n3)cnc2c1)C(F)(F)F (stereo partly drawn) [Example 136, N-[(3R)-pyrrolidin-3-yl]-6-[7-(2,2,2-trifluoro-1-methylethoxy)imidazo[1,2-a]pyridin-3-yl]pyrazin-2-amine] | 52 nM | 966 nM |  | 
8 | CC(C)c1cn2c(-c3cncc(N[C@H]4CNC[C@H]4CF)n3)cnc2s1 [Example 184, N-[(3R,4R)-4-(fluoromethyl)pyrrolidin-3-yl]-6-[2-(propan-2-yl)imidazo[2,1-b][1,3]thiazol-5-yl]pyrazin-2-amine] |  | 66.4 nM | 109%^ | 
9 | CC[C@@H]1CNC[C@@H]1Nc1cncc(-c2cnc3ccccn23)n1 [Example 196, N-[(3R,4R)-4-ethylpyrrolidin-3-yl]-6-(imidazo[1,2-a]pyridin-3-yl)pyrazin-2-amine] | 32 nM | 16.8 nM |  | 
10 | c1ccn2ncc(-c3cncc(N[C@@H]4CCCNC4)n3)c2c1 [Example 6, N-[(3R)-piperidin-3-yl]-6-pyrazolo[1,5-a]pyridin-3-ylpyrazin-2-amine] | 2.54 nM | 31.8 nM |  | 
11 | OCc1ccc2ncc(-c3cncc(N[C@@H]4CCCNC4)n3)n2c1 [Example 151, (3-{6-[(3R)-piperidin-3-ylamino]pyrazin-2-yl}imidazo[1,2-a]pyridin-6-yl)methanol] | 1.07 nM | 78.7 nM |  | 
12 | c1cnn2c(-c3cncc(N[C@@H]4CCCNC4)n3)cnc2c1 [Example 60, 6-Imidazo[1,2-b]pyridazin-3-yl-N-[(3R)-piperidin-3-yl]pyrazin-2-amine] | 1000 nM | 8320 nM |  | 
13 | FC1(F)CCNCC1Nc1cncc(-c2cnc3ccccn23)n1 (stereo not drawn) [Example 11, N-(4,4-difluoropiperidin-3-yl)-6-(imidazo[1,2-a]pyridin-3-yl)pyrazin-2-amine] |  | 62.1 nM | 101%^ | 
14 | Cc1ccn2c(-c3cncc(N[C@@H]4CCCNC4)n3)cnc2c1 [Example 38, 6-(7-Methylimidazo[1,2-a]pyridin-3-yl)-N-[(3R)-piperidin-3-yl]pyrazin-2-amine] | 8 nM | 40 nM |  | 
15 | Cc1ncc(N[C@@H]2CCNC2)nc1-c1cnc2ccccn12 [Example 296, 6-(imidazo[1,2-a]pyridin-3-yl)-5-methyl-N-[(3R)-pyrrolidin-3-yl]pyrazin-2-amine] | 334 nM | 4080 nM |  | 
16 | C[C@H]1NCCC[C@H]1Nc1cncc(-c2cnc3cc(C#N)ccn23)n1 [Example 262, 3-(6-{[(2R,3R)-2-methylpiperidin-3-yl]amino}pyrazin-2-yl)imidazo[1,2-a]pyridine-7-carbonitrile] | 56.4 nM | 303 nM |  | 
17 | COc1ccn2c(-c3cncc(N[C@@H]4C[C@@H]5CN[C@H]4C5)n3)cnc2c1 [Example 124, (1S,4R,6R)-N-[6-(7-methoxyimidazo[1,2-a]pyridin-3-yl)pyrazin-2-yl]-2-azabicyclo[2.2.1]heptan-6-amine] | 2.29 nM | ≥ 10000 nM |  | 

Row | Compound | Ki (CHK1 (kinase domain)) | EC50 (HeLa cells; Homo sapiens, HeLa) | percent inhibition (where no Ki data is available) (CHK1 (kinase domain)) | EC50 (HeLa cells)
18 | N#Cc1ccn2c(-c3cncc(N[C@@H]4CCNC4)n3)cnc2c1 [Example 186, 3-{6-[(3R)-pyrrolidin-3-ylamino]pyrazin-2-yl}imidazo[1,2-a]pyridine-7-carbonitrile] | 24 nM | 664 nM |  | 
19 | C[C@@H]1NCCC[C@@H]1Nc1cncc(-c2cnc3ccccn23)n1 [Example 139, 6-imidazo[1,2-a]pyridin-3-yl-N-[(2S,3S)-2-methylpiperidin-3-yl]pyrazin-2-amine] | 9.7 nM | ≥ 10000 nM |  | 
20 | CCc1cn2c(-c3cncc(N[C@@H]4CC[C@@H](C)NC4)n3)cnc2s1 [Example 106, 6-(2-ethylimidazo[2,1-b][1,3]thiazol-5-yl)-N-[(3R,6R)-6-methylpiperidin-3-yl]pyrazin-2-amine] | 21.8 nM | 271 nM |  | 
21 | Cc1cn2c(-c3cncc(N[C@@H]4CNC[C@@H]4C)n3)cnc2s1 [Example 140, 6-(2-methylimidazo[2,1-b][1,3]thiazol-5-yl)-N-[(3S,4S)-4-methylpyrrolidin-3-yl]pyrazin-2-amine] | 1.07 nM | 19.2 nM |  | 
22 | CC1(Nc2cncc(-c3cnc4ccccn34)n2)CCCNC1 (stereo not drawn) [Example 54, 6-Imidazo[1,2-a]pyridin-3-yl-N-(3-methylpiperidin-3-yl)pyrazin-2-amine] | 118 nM | 1110 nM |  | 
23 | Fc1ccc2ncc(-c3cncc(N[C@H]4CNC[C@H]4F)n3)n2c1 [Example 90, 6-(6-fluoroimidazo[1,2-a]pyridin-3-yl)-N-[(3S,4R)-4-fluoropyrrolidin-3-yl]pyrazin-2-amine] | 70.5 nM | ≥ 10000 nM |  | 
24 | C[C@H]1NCCC[C@H]1Nc1cncc(-c2cnc3cc(Cl)ccn23)n1 [Example 102, 6-(7-chloroimidazo[1,2-a]pyridin-3-yl)-N-[(2R,3R)-2-methylpiperidin-3-yl]pyrazin-2-amine] | 3.1 nM | ≥ 10000 nM |  | 
25 | FC(F)[C@@H]1C[C@@H](Nc2cncc(-c3cnc4ccccn34)n2)CN1 [Example 25, N-[(3R,5S)-5-(difluoromethyl)pyrrolidin-3-yl]-6-(imidazo[1,2-a]pyridin-3-yl)pyrazin-2-amine] | 70.2 nM | ≥ 10000 nM |  | 
26 | CCc1cn2c(-c3cncc(N[C@@H]4CCCN[C@H]4C)n3)cnc2s1 [Example 109, 6-(2-ethylimidazo[2,1-b][1,3]thiazol-5-yl)-N-[(2S,3R)-2-methylpiperidin-3-yl]pyrazin-2-amine] | 28.4 nM |  |  | 190 nM
27 | Fc1ccc2ncc(-c3cncc(N[C@@H]4C[C@@H]5CN[C@H]4C5)n3)n2c1 [Example 126, (1S,4R,6R)-N-[6-(6-fluoroimidazo[1,2-a]pyridin-3-yl)pyrazin-2-yl]-2-azabicyclo[2.2.1]heptan-6-amine] | 5.88 nM | 140 nM |  | 
28 | Cc1cn2c(-c3cncc(N[C@H]4CN[C@H](C)C4)n3)cnc2s1 [Example 178, 6-(2-methylimidazo[2,1-b][1,3]thiazol-5-yl)-N-[(3R,5R)-5-methylpyrrolidin-3-yl]pyrazin-2-amine] | 2.01 nM | 31.2 nM |  | 
29 | c1ccn2c(-c3cncc(N[C@@H]4CCNC4)n3)cnc2c1 [Example 10, 6-Imidazo[1,2-a]pyridin-3-yl-N-[(3R)-pyrrolidin-3-yl]pyrazin-2-amine] | 23.6 nM | 244 nM |  | 
30 | CCc1cn2c(-c3cncc(N[C@H]4CCCN[C@@H]4C)n3)cnc2s1 [Example 174, 6-(2-ethylimidazo[2,1-b][1,3]thiazol-5-yl)-N-[(2R,3S)-2-methylpiperidin-3-yl]pyrazin-2-amine] | 16.9 nM | ≥ 10000 nM |  | 
31 | Cc1cn2c(-c3cncc(N[C@H]4CNC[C@H]4CF)n3)cnc2s1 [Example 183, N-[(3R,4R)-4-(fluoromethyl)pyrrolidin-3-yl]-6-(2-methylimidazo[2,1-b][1,3]thiazol-5-yl)pyrazin-2-amine] | 5.4 nM | 53 nM |  | 
32 | CCc1cn2c(-c3cncc(N[C@@H]4CC[C@H](C)NC4)n3)cnc2s1 [Example 103, 6-(2-ethylimidazo[2,1-b][1,3]thiazol-5-yl)-N-[(3R,6S)-6-methylpiperidin-3-yl]pyrazin-2-amine] | 26.5 nM | 69.6 nM |  | 
33 | C[C@@H]1C[C@@H](Nc2cncc(-c3cnn4cc(Cl)ccc34)n2)CN1 [Example 143, 6-(6-chloropyrazolo[1,5-a]pyridin-3-yl)-N-[(3R,5R)-5-methylpyrrolidin-3-yl]pyrazin-2-amine] | 1.11 nM | 119 nM |  | 
